US6156700A, “3-(1,2-Benzisothiazol- and isoxazol-5-yl)-2,4(1H,3H)-pyrimidinedione or thione and 3-(1,2-benzisothiazol- and isoxazol-5-yl)-4(3H)-pyrimidinone or thione herbicidal agents” (American Cyanmid Company, priority 1998, dated 2000)

What was measured:
ZEAMX [1] = assay: Postemergence herbicidal evaluation; format: in vivo
AMBEL [2] = assay: Postemergence herbicidal evaluation; format: in vivo
SETVI [3] = assay: Postemergence herbicidal evaluation; format: in vivo
CHEAL [4] = assay: Preemergence herbicidal evaluation; format: in vivo; design: scale not given here
Method: (§1) The preemergence and postemergence herbicidal properties of certain compounds of the present invention are compared with certain compounds disclosed in U.S. Pat. Nos. 5,484,763 and 5,523,278. The evaluations are performed as described in Examples 185 and 186. Data in Tables V and VI are reported by the compound number given in Example 185 for the compounds of this invention or by comparative compound letter for the compounds disclosed in U.S. Pat. Nos. 5,484,763 and 5,523,278.

SETVI [5] = assay: Preemergence herbicidal evaluation; format: in vivo; design: scale not given here
Method: as §1

IPOSS [6] = assay: Preemergence herbicidal evaluation; format: in vivo; design: scale not given here
Method: as §1

ZEAMX [7] = assay: Preemergence herbicidal evaluation; format: in vivo; design: scale not given here
Method: as §1

GLXMAW [8] = assay: Preemergence herbicidal evaluation; format: in vivo; design: scale not given here
Method: as §1

ECHCG [9] = assay: Preemergence herbicidal evaluation; format: in vivo; design: scale not given here
Method: as §1

GALAP [10] = assay: Preemergence herbicidal evaluation; format: in vivo; design: scale not given here
Method: as §1

CASOB [11] = assay: Preemergence herbicidal evaluation; format: in vivo; design: scale not given here
Method: as §1

ABUTH [12] = assay: Preemergence herbicidal evaluation; format: in vivo; design: scale not given here
Method: as §1

AMBEL [13] = assay: Preemergence herbicidal evaluation; format: in vivo; design: scale not given here
Method: as §1

CASOB [14] = assay: Postemergence herbicidal evaluation; format: in vivo
CHEAL [15] = assay: Postemergence herbicidal evaluation; format: in vivo
ABUTH [16] = assay: Postemergence herbicidal evaluation; format: in vivo
GALAP [17] = assay: Postemergence herbicidal evaluation; format: in vivo
ORYSAT [18] = assay: Postemergence herbicidal evaluation; format: in vivo, Oryza sativa
ORYSAT [19] = assay: Preemergence herbicidal evaluation; format: in vivo, Oryza sativa; design: scale not given here
Method: as §1

ECHCG [20] = assay: Postemergence herbicidal evaluation; format: in vivo
GLXMAW [21] = assay: Postemergence herbicidal evaluation; format: in vivo
IPOSS [22] = assay: Postemergence herbicidal evaluation; format: in vivo

O=C1C2=C(CCCC2)C(=O)N1c1ccc2sncc2c1 [C]
herbicidal effect rating (ZEAMX [1]; 0.0157-0.0160 kg/ha): 1.5
herbicidal effect rating (ZEAMX [1]; 0.0313-0.0320 kg/ha): 2.0
herbicidal effect rating (ZEAMX [1]; 0.0625-0.0640 kg/ha): 1.5
herbicidal effect rating (ZEAMX [1]; 0.1250 kg/ha): 1.5
herbicidal effect rating (ZEAMX [1]; 0.2500 kg/ha): 2.5
herbicidal effect rating (ZEAMX [1]; 0.5000 kg/ha): 3.0
herbicidal effect rating (AMBEL [2]; 0.0157-0.0160 kg/ha): 6.0
herbicidal effect rating (AMBEL [2]; 0.0313-0.0320 kg/ha): 6.0
herbicidal effect rating (AMBEL [2]; 0.0625-0.0640 kg/ha): 7.0
herbicidal effect rating (AMBEL [2]; 0.1250 kg/ha): 8.0
herbicidal effect rating (AMBEL [2]; 0.2500 kg/ha): 7.0
herbicidal effect rating (AMBEL [2]; 0.5000 kg/ha): 9.0
herbicidal effect rating (SETVI [3]; 0.0157-0.0160 kg/ha): 0.0
herbicidal effect rating (SETVI [3]; 0.0313-0.0320 kg/ha): 0.0
herbicidal effect rating (SETVI [3]; 0.0625-0.0640 kg/ha): 0.0
herbicidal effect rating (SETVI [3]; 0.1250 kg/ha): 0.0
herbicidal effect rating (SETVI [3]; 0.2500 kg/ha): 0.0
herbicidal effect rating (SETVI [3]; 0.5000 kg/ha): 2.0
herbicidal effect rating (CHEAL [4]; 0.0313-0.0320 kg/ha): 3.0
herbicidal effect rating (CHEAL [4]; 0.0620-0.0630 kg/ha): 4.0
herbicidal effect rating (CHEAL [4]; 0.1250 kg/ha): 5.0
herbicidal effect rating (CHEAL [4]; 0.2500 kg/ha): 3.0
herbicidal effect rating (CHEAL [4]; 0.5000 kg/ha): 7.0
herbicidal effect rating (SETVI [5]; 0.0313-0.0320 kg/ha): 0.0
herbicidal effect rating (SETVI [5]; 0.0620-0.0630 kg/ha): 0.0
herbicidal effect rating (SETVI [5]; 0.1250 kg/ha): 2.0
herbicidal effect rating (SETVI [5]; 0.2500 kg/ha): 4.0
herbicidal effect rating (SETVI [5]; 0.5000 kg/ha): 5.0
herbicidal effect rating (IPOSS [6]; 0.0313-0.0320 kg/ha): 0.0
herbicidal effect rating (IPOSS [6]; 0.0620-0.0630 kg/ha): 0.0
herbicidal effect rating (IPOSS [6]; 0.1250 kg/ha): 0.0
herbicidal effect rating (IPOSS [6]; 0.2500 kg/ha): 0.0
herbicidal effect rating (IPOSS [6]; 0.5000 kg/ha): 2.0
herbicidal effect rating (ZEAMX [7]; 0.0313-0.0320 kg/ha): 0.0
herbicidal effect rating (ZEAMX [7]; 0.0620-0.0630 kg/ha): 0.0
herbicidal effect rating (ZEAMX [7]; 0.1250 kg/ha): 0.0
herbicidal effect rating (ZEAMX [7]; 0.2500 kg/ha): 0.0
herbicidal effect rating (ZEAMX [7]; 0.5000 kg/ha): 0.0
herbicidal effect rating (GLXMAW [8]; 0.0313-0.0320 kg/ha): 0.0
herbicidal effect rating (GLXMAW [8]; 0.0620-0.0630 kg/ha): 0.0
herbicidal effect rating (GLXMAW [8]; 0.1250 kg/ha): 0.0
herbicidal effect rating (GLXMAW [8]; 0.2500 kg/ha): 0.0
herbicidal effect rating (GLXMAW [8]; 0.5000 kg/ha): 0.0
herbicidal effect rating (ECHCG [9]; 0.0313-0.0320 kg/ha): 0.0
herbicidal effect rating (ECHCG [9]; 0.0620-0.0630 kg/ha): 0.0
herbicidal effect rating (ECHCG [9]; 0.1250 kg/ha): 2.0
herbicidal effect rating (ECHCG [9]; 0.2500 kg/ha): 4.0
herbicidal effect rating (ECHCG [9]; 0.5000 kg/ha): 6.0
herbicidal effect rating (GALAP [10]; 0.0620-0.0630 kg/ha): 2.0
herbicidal effect rating (GALAP [10]; 0.1250 kg/ha): 2.0
herbicidal effect rating (GALAP [10]; 0.2500 kg/ha): 6.0
herbicidal effect rating (GALAP [10]; 0.5000 kg/ha): 7.5
herbicidal effect rating (CASOB [11]; 0.0313-0.0320 kg/ha): 1.0
herbicidal effect rating (CASOB [11]; 0.0620-0.0630 kg/ha): 0.0
herbicidal effect rating (CASOB [11]; 0.1250 kg/ha): 0.0
herbicidal effect rating (CASOB [11]; 0.2500 kg/ha): 0.0
herbicidal effect rating (CASOB [11]; 0.5000 kg/ha): 5.5
herbicidal effect rating (ABUTH [12]; 0.0313-0.0320 kg/ha): 0.0
herbicidal effect rating (ABUTH [12]; 0.0620-0.0630 kg/ha): 2.0
herbicidal effect rating (ABUTH [12]; 0.1250 kg/ha): 4.0
herbicidal effect rating (ABUTH [12]; 0.2500 kg/ha): 9.0
herbicidal effect rating (ABUTH [12]; 0.5000 kg/ha): 9.0
herbicidal effect rating (AMBEL [13]; 0.0313-0.0320 kg/ha): 3.0
herbicidal effect rating (AMBEL [13]; 0.0620-0.0630 kg/ha): 3.0
herbicidal effect rating (AMBEL [13]; 0.1250 kg/ha): 2.0
herbicidal effect rating (AMBEL [13]; 0.2500 kg/ha): 2.0
herbicidal effect rating (AMBEL [13]; 0.5000 kg/ha): 6.0
herbicidal effect rating (CASOB [14]; 0.0157-0.0160 kg/ha): 3.0
herbicidal effect rating (CASOB [14]; 0.0313-0.0320 kg/ha): 8.0
herbicidal effect rating (CASOB [14]; 0.0625-0.0640 kg/ha): 7.0
herbicidal effect rating (CASOB [14]; 0.1250 kg/ha): 7.0
herbicidal effect rating (CASOB [14]; 0.2500 kg/ha): 7.0
herbicidal effect rating (CASOB [14]; 0.5000 kg/ha): 9.0
herbicidal effect rating (CHEAL [15]; 0.0157-0.0160 kg/ha): 0.0
herbicidal effect rating (CHEAL [15]; 0.0313-0.0320 kg/ha): 3.0
herbicidal effect rating (CHEAL [15]; 0.0625-0.0640 kg/ha): 3.0
herbicidal effect rating (CHEAL [15]; 0.1250 kg/ha): 3.0
herbicidal effect rating (CHEAL [15]; 0.2500 kg/ha): 4.0
herbicidal effect rating (CHEAL [15]; 0.5000 kg/ha): 5.0
herbicidal effect rating (ABUTH [16]; 0.0157-0.0160 kg/ha): 8.0
herbicidal effect rating (ABUTH [16]; 0.0313-0.0320 kg/ha): 9.0
herbicidal effect rating (ABUTH [16]; 0.0625-0.0640 kg/ha): 9.0
herbicidal effect rating (ABUTH [16]; 0.1250 kg/ha): 9.0
herbicidal effect rating (ABUTH [16]; 0.2500 kg/ha): 9.0
herbicidal effect rating (ABUTH [16]; 0.5000 kg/ha): 9.0
herbicidal effect rating (GALAP [17]; 0.0157-0.0160 kg/ha): 2.0
herbicidal effect rating (GALAP [17]; 0.0313-0.0320 kg/ha): 3.0
herbicidal effect rating (GALAP [17]; 0.0625-0.0640 kg/ha): 5.0
herbicidal effect rating (GALAP [17]; 0.1250 kg/ha): 6.0
herbicidal effect rating (GALAP [17]; 0.2500 kg/ha): 6.0
herbicidal effect rating (GALAP [17]; 0.5000 kg/ha): 9.0
herbicidal effect rating (ORYSAT [18]; 0.0157-0.0160 kg/ha): 2.0
herbicidal effect rating (ORYSAT [18]; 0.0313-0.0320 kg/ha): 2.0
herbicidal effect rating (ORYSAT [18]; 0.0625-0.0640 kg/ha): 2.5
herbicidal effect rating (ORYSAT [18]; 0.1250 kg/ha): 2.5
herbicidal effect rating (ORYSAT [18]; 0.2500 kg/ha): 3.0
herbicidal effect rating (ORYSAT [18]; 0.5000 kg/ha): 4.5
herbicidal effect rating (ORYSAT [19]; 0.0313-0.0320 kg/ha): 1.0
herbicidal effect rating (ORYSAT [19]; 0.0620-0.0630 kg/ha): 2.0
herbicidal effect rating (ORYSAT [19]; 0.1250 kg/ha): 2.0
herbicidal effect rating (ORYSAT [19]; 0.2500 kg/ha): 4.0
herbicidal effect rating (ORYSAT [19]; 0.5000 kg/ha): 4.0
herbicidal effect rating (ECHCG [20]; 0.0157-0.0160 kg/ha): 0.0
herbicidal effect rating (ECHCG [20]; 0.0313-0.0320 kg/ha): 0.0
herbicidal effect rating (ECHCG [20]; 0.0625-0.0640 kg/ha): 0.0
herbicidal effect rating (ECHCG [20]; 0.1250 kg/ha): 0.0
herbicidal effect rating (ECHCG [20]; 0.2500 kg/ha): 0.0
herbicidal effect rating (ECHCG [20]; 0.5000 kg/ha): 0.0
herbicidal effect rating (GLXMAW [21]; 0.0157-0.0160 kg/ha): 1.0
herbicidal effect rating (GLXMAW [21]; 0.0313-0.0320 kg/ha): 1.5
herbicidal effect rating (GLXMAW [21]; 0.0625-0.0640 kg/ha): 3.0
herbicidal effect rating (GLXMAW [21]; 0.1250 kg/ha): 2.0
herbicidal effect rating (GLXMAW [21]; 0.2500 kg/ha): 2.5
herbicidal effect rating (GLXMAW [21]; 0.5000 kg/ha): 4.5
herbicidal effect rating (IPOSS [22]; 0.0157-0.0160 kg/ha): 2.0
herbicidal effect rating (IPOSS [22]; 0.0313-0.0320 kg/ha): 6.0
herbicidal effect rating (IPOSS [22]; 0.0625-0.0640 kg/ha): 5.0
herbicidal effect rating (IPOSS [22]; 0.1250 kg/ha): 7.0
herbicidal effect rating (IPOSS [22]; 0.2500 kg/ha): 6.0
herbicidal effect rating (IPOSS [22]; 0.5000 kg/ha): 7.0
